Measurements taken from publication PMC9944328 (Nature Communications, 2023).

Assays:
[1] = biological target: T1, SSTR3 (Homo sapiens, UniProt P32745); experiment: SSTRs Gi-mediated cAMP inhibition, GloSensor, HEK293 (SSTR3 wild-type); assay type: cell-based; design: Bottom / Top / Span / Top (best-fit): unit not given here; conditions: SSTR3-WT; for LogEC50 (best-fit) / Top (best-fit): cAMP inhibition
T1 construct: The human full-length SSTRs and mutants were cloned into the pcDNA3.1+ vector; expressed in transfected cells; host or cells: HEK293 (ATCC, CRL-1573)
Experimental: The levels of the intracellular 3′, 5′-cyclic AMP (cAMP) were measured by the GloSensor cAMP assay (Promega) as described in the previous studies[28],[41] which has been widely used. The human full-length SSTRs and mutants were cloned into the pcDNA3.1+ vector with a HA signal sequence followed by a Flag tag at the N-terminus. […] Cells were then co-transfected with SSTR wild-type or mutants and GloSensor plasmids. After 24 h of transfection, the cells were dissociated with TrypLE™ Express Enzyme (1X) (Thermo Fisher Scientific) and collected by centrifugation at 500 × g for 5 min. Then the collected cells were suspended in Hank’s balanced salt solution [HBSS (Thermo Fisher Scientific)] supplemented with […] potassium salt solution (YEASEN), and then the suspension cells were seeded into 96-well plates with 90 μl/well. After incubating at room temperature for 40 min, 5 μM forskolin and ligands diluted in HBSS were added to each well and the plates were incubated at room temperature for 15 min. […] signals were measured using the Synergy H1 microplate reader (BioTek) and the data presented are means of at least three independent experiments.

[2] = test system: SSTR2 mutants; experiment: SSTR2 internalization by ELISA, HEK293, 30 min 37 °C (mutants); assay type: cell-based, human; conditions: I284ECL3A, K291A, N276A, F294A, Bystander BRET or confocal
Experimental: HEK293 cells were seeded into 96-well microplates at a density of 4 × 10^4 cells/well and cultured for 24 h at 37 °C with 5% CO2 and were transfected using the same procedure as the cAMP accumulation assay. The plates were washed with washing buffer (PBS) the day after transfection, and were fixed with 4% formalin at room temperature for 30 min. Cells were washed with washing buffer and blocked with PBS supplemented with 5% BSA for 1 h at room temperature. After that, cells were incubated with anti-Flag antibody (1:1000 diluted with PBS containing 5% BSA, Proteintech: 66008-4-Ig) for 1 h at room temperature. After 1 h incubation, cells were washed with washing buffer and incubating with HRP-conjugated secondary antibody for 2 h at room temperature. After incubating and washing, 50 μl of chromogenic solution was added to each well, and reacted at room temperature for 10 min, and then 0.5 M HCl were added to stop the reaction.
All data presented are means at least three independent experiments.

[3] = test system: SSTR2; experiment: β-arrestin recruitment with co-transfection of GRK2; assay type: cell-based, human; conditions: N276(6.55)A and F294(7.35)A with GRK2 co-transfection
Experimental: In addition, we measured the function of the residues located in the core region and the common ligand binding pocket.
Human full-length β-arrestin 1 was cloned into pcDNA3.1+ vector with the large fragment (LgBiT) of the NanoBiT system and a 15-amino acid flexible linker ([sequence]) at the N-terminus. Human full-length SSTR wild-type and mutant vectors were C-terminally fused with a 15-amino acid flexible linker and the small fragment (SmBiT). HEK293 cells were seeded into six-well microplates at a density of 1.0 × 10^6 cells/well and cultured for 24 h at 37 °C with 5% CO2. After that, cells were co-transfected with pcDNA3.1+ vectors encoding SSTR wild-type or mutants and human β-arrestin 1. After transfecting for 24 h, the transfected cells were suspended and seeded into white 96-well plates, and then cultured at 37 °C overnight. After that the medium in each well was exchanged for 90 μl of 0.01% bovine serum albumin containing 20 μl of 50 μM coelenterazine h (Carbosynth) diluted in the HBSS assay buffer and incubated for 40 min at room temperature. Then, ligands diluted in the assay buffer was added to each well and the luminescence intensity was measured using the Synergy H1 microplate reader and detected at room temperature in a time period. All data presented are means of at least three independent experiments.

[4] = test system: SSTR2 Y302A mutant; design: method as in earlier work; conditions: Y302(7.43)A; ref 20 of peer review file (Zhao, W. et al., 2022); cited from earlier work
[5] = biological target: SSTR2 (Homo sapiens, UniProt P30874); experiment: Bystander BRET endosomal trafficking (β-arrestin 1-Nluc, FYVE-mVenus), HEK293 (SSTR2 wild-type); assay type: cell-based; design: The human full-length SSTRs and mutants were cloned into the pcDNA3.1+ vector; expressed in transfected cells; host or cells: HEK293;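 note: HEK293 cells coexpressing Nluc-tagged β-arrestin 1 and mVenus-fused FYVE endosomal marker, bystander BRET ratio read after ligand addition, coelenterazine h substrate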;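 for Bottom: percent of maximal wild-type response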;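 for Span: percent of maximal wild-type response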;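 for Top: percent of maximal wild-type response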
Experimental: Wild-type or mutant SSTR2, β-arrestin 1-Nluc and FYVE-mVenus were co-transfected in HEK293 cells at a ratio of 1:0.5:4 on six-well plates. The next day, the transfected cells were plated on white 96-well and incubated overnight, and then cells were incubated with 90 µL HBSS containing 20 mM HEPES and coelenterazine h (5 µM) at room temperature for 40 min. After incubation, ligand was added and the signal was measured using the Synergy H1 microplate reader (BioTek) to determine a BRET ratio.

[6] = Best-fit values, WT-1 (N276A set)
[7] = Best-fit values, WT-1 (P220A, I130A, F265A sets)
[8] = Best-fit values, WT-1 (R140A, Y312A sets)
[9] = Best-fit values, WT-1/-3 (W269A set), WT-2 (N276A set), WT-1 (I284A set)
[10] = Best-fit values, WT-2 (P220A, I130A, F265A sets)
[11] = Best-fit values, WT-2 (R140A, Y312A sets)
[12] = Best-fit values, WT-2 (W269A, I284A sets)
[13] = Best-fit values, WT-3 (N276A set)
[14] = best-fit, SSTR2 WT-1 (control in F294A block), run 1
[15] = best-fit, SSTR2 WT-1 (control in K291A block), run 1
[16] = best-fit, SSTR2 WT-2 (control in F294A block), run 2
[17] = best-fit, SSTR2 WT-2 (control in K291A block), run 2

SSTR2 (Homo sapiens, UniProt P30874), sequence (P30874 whole entry, the tested form may be a part): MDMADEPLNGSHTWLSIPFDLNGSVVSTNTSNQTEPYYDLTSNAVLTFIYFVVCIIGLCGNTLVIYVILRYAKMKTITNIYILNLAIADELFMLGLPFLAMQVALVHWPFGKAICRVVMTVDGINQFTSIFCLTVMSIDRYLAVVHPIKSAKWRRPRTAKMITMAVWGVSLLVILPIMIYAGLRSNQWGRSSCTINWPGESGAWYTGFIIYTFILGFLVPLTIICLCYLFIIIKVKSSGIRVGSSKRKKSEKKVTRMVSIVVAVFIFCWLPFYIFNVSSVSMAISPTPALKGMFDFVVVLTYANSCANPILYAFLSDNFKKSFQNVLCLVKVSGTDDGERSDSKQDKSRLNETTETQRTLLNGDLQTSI
T1 sequence (P32745 whole entry): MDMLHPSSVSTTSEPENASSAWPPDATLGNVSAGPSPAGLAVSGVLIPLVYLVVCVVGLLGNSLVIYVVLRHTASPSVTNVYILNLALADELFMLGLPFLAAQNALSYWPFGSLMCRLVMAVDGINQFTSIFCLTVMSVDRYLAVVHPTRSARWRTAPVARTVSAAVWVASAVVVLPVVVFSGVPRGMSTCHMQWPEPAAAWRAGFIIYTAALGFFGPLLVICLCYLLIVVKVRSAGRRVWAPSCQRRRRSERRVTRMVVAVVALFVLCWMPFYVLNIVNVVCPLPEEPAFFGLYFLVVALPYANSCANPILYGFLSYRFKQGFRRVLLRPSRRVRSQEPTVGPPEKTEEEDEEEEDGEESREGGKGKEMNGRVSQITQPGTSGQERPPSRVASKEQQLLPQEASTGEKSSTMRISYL

## C[C@@H](O)[C@@H]1NC(=O)[C@H](CCCCN)NC(=O)[C@@H](Cc2c[nH]c3ccccc23)NC(=O)[C@H](Cc2ccccc2)NC(=O)[C@@H](NC(=O)[C@H](N)Cc2ccccc2)CSSC[C@@H](C(=O)N[C@H](CO)[C@@H](C)O)NC1=O [octreotide]
[1]; HEK293, Suppl. Tables 4/5, n=5
  Emax: 99.8 ± 8.21%
[1]; run 1
  LogEC50 (best-fit): -7.262
  Top (best-fit): 103
[1]; run 2
  LogEC50 (best-fit): -7.521
  Top (best-fit): 99.85
[1]; run 3
  LogEC50 (best-fit): -7.466
  Top (best-fit): 98.24
[1]; run 4
  LogEC50 (best-fit): -8.231
  Top (best-fit): 100.3
[2]
  Internalization of mutants: diminished internalization
[3]
  β-arrestin recruitment with GRK2: nearly abolished
[4]
  Binding to mutant: nearly abolished the binding
[5]; [6]
  Bottom: -3.249
  Span: 103
  Top: 99.78
[5]; [7]
  Bottom: 16.02
  Span: 79.41
  Top: 95.44
[5]; [8]
  Bottom: -2.667
  Span: 105.4
  Top: 102.8
[5]; Best-fit values, WT-1/-3 (W269A set), WT-2 (N276A set)
  Span: 83.76
[5]; [9]
  Bottom: 4.545
  Top: 88.3
[5]; [10]
  Bottom: 0.5214
  Span: 104.2
  Top: 104.7
[5]; [11]
  Bottom: -1.531
  Span: 100.4
  Top: 98.89
[5]; Best-fit values, WT-2 (W269A set)
  Span: 83.11
[5]; [12]
  Bottom: 7.543
  Top: 90.66
[5]; [13]
  Bottom: -1.634
  Span: 102.4
  Top: 100.7
[5]; HEK293, Bystander BRET, SSTR2-WT, n=6, read-out: Emax
  Emax: 100%
[5]; [14]
  Bottom: 14.58
  Span: 85.75
  Top: 100.3
[5]; best-fit, SSTR2 WT-1 (control in I284A and K291A blocks), run 1
  Span: 83.76
[5]; [15]
  Bottom: 4.545
  Top: 88.3
[5]; [16]
  Bottom: 19.75
  Span: 76.3
  Top: 96.05
[5]; best-fit, SSTR2 WT-2 (control in I284A and K291A blocks), run 2
  Span: 83.11
[5]; [17]
  Bottom: 7.543
  Top: 90.66
[5]; best-fit, SSTR2 WT-3 (control in F294A block), run 3
  Bottom: -1.634
